Measured values published in patent US9969742B2, “Imidazotriazinone compounds” (Ironwood Pharmaceuticals, Inc., priority 2012, dated 2018).

biological target: T1, PDE9A2 (Homo sapiens, UniProt O76083); assay: Phosphodiesterase enzyme screening assay, PDE9A2; assay type: biochemical; settings: 4.0 μM cGMP substrate, 1 hour at R.T.; read-out: Band (PDE9A2 IC50)
T1 construct: purchased Reaction Biology Corporation, Malvern, Pa
Source text: Compounds of the invention were screened against PDE1A, PDE1B, PDE2A, PDE3A, PDE3B, PDE4A1A, PDE4B1, PDE4D3, PDE5A1, PDE6C, PDE7A, PDE8A1, PDE9A2, PDE10A2 AND PDE11A isoforms of the phosphodiesterase enzyme to determine activity and overall selectivity through comparative analysis. […] Where 8-methoxy-IBMX and Zaprinast were used as reference inhibitors.
The phosphodiesterase enzyme isoforms were obtained from a commercial retailer (Reaction Biology Corporation, Malvern, Pa.) for use in the instant screening assay.
The analysis was completed using the Caliper LabChip 3000 and a 12-sipper LabChip. LabChip assays are separations-based, meaning that the product and substrate are electrophoretically separated, thereby minimizing interferences and yielding the highest data quality available on any screening platform. […] High Z′ values, few false positives, few false negatives and analytical quality reproducibility are the reasons cited for the increasing reliance on the LabChip assays.
The off-chip incubation mobility-shift phosphodiesterase assay uses a microfluidic chip to measure the conversion of a fluorescent cyclic AMP substrate to a 5′-AMP product, or a cyclic GMP substrate to a 5′-GMP product. The reaction mixture, from a microtiter plate well, is introduced through a capillary sipper onto the chip, where the fluorescent substrate and product are separated by electrophoresis and detected via laser-induced fluorescence. […] The precision of microfluidics allows researchers to detect subtle interactions between drug candidates and therapeutic targets.
Reactions were carried out in 100 mM HEPES (pH 7.5), 5 mM MgCl2, 1 mM DTT, 0.003% Brij, 4.0 μM cGMP substrate. The reaction was started by addition of cGMP or cAMP and incubated for 1 hour at R.T. The reaction was terminated by the addition of stop buffer containing 100 mM HEPES (pH 7.5), 15 mM EDTA, 0.015% Brij-35, 5% DMSO. Cyclic AMP/GMP substrate and 5′-AMP/5′-GMP product were separated by charge using electrophoretic mobility shift. Product formed was compared to control wells to determine inhibition or enhancement of enzyme activity.
Data points were averages of quadruplicate wells and error bars represented the SEM for each point.

T1 sequence (O76083 1-533 isoform O76083-2): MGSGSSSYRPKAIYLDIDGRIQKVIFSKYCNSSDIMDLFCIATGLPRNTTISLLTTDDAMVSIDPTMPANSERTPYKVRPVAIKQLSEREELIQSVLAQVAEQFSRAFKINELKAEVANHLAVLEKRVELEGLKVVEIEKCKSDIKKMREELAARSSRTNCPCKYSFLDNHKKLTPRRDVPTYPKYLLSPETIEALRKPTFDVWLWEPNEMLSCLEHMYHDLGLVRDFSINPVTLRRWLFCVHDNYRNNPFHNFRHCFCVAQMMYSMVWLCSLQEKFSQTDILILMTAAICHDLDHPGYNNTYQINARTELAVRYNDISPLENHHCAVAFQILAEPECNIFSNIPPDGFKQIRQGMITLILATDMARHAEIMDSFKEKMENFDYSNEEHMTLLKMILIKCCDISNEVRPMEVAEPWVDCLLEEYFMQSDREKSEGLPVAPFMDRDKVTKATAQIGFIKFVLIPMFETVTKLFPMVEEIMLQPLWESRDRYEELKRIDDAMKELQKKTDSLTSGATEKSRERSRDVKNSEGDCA

For `Cc1cnccc1-c1ncc2c(=O)[nH]c(C3CN(Cc4nc5ccccn5n4)CC3C)nn12` (single isomer, unassigned; (+)) [(+)-2-((3,4-trans)-1-([1,2,4]triazolo[1,5-a]pyridin-2-ylmethyl)-4-methylpyrrolidin-3-yl)-7-(3-methylpyridin-4-yl)imidazo[5,1-f][1,2,4]triazin-4(3H)-one], which IC50 is on record?
The IC50 was less than 1000 nM.

same assay, conditions: Table 1; 10 concentrations; 4.0 μM cGMP substrate; 1 hour at R.T.; read-out: Band (PDE9A2 IC50)

How did the IC50 turn out when `CC1CN(Cc2ccccn2)CC1c1nn2c(C3CCOCC3)ncc2c(=O)[nH]1` (single isomer, unassigned; (-)) [(−)-2-((3,4-trans)-4-methyl-1-(pyridin-2-ylmethyl)pyrrolidin-3-yl)-7-(tetrahydro-2H-pyran-4-yl)imidazo[5,1-f][1,2,4]triazin-4(3H)-one] was run?
The IC50 was less than 1000 nM.

Which IC50 does the source give for `CC1CN(Cc2ccccc2)CC1c1nn2c(C3CCC(F)(F)CC3)ncc2c(=O)[nH]1` (single isomer, unassigned; (-)) [(−)-2-((3,4-trans)-1-benzyl-4-methylpyrrolidin-3-yl)-7-(4,4-difluorocyclohexyl)imidazo[5,1-f][1,2,4]triazin-4(3H)-one] here?
Its IC50 is less than 1000 nM.

Which IC50 does the source give for `CC1CN(Cc2ccc3ccccc3n2)CC1c1nn2c(C3CCOCC3)ncc2c(=O)[nH]1` (single isomer, unassigned; (+)) [(+)-2-((3,4-trans)-4-methyl-1-(quinolin-2-ylmethyl)pyrrolidin-3-yl)-7-(tetrahydro-2H-pyran-4-yl)imidazo[5,1-f][1,2,4]triazin-4(3H)-one] here?
The IC50 was less than 1000 nM.

For `CC1CN(C(=O)c2ccncn2)CC1c1nn2c(C3CCOCC3)ncc2c(=O)[nH]1` (single isomer, unassigned; (-)) [(−)-2-((3,4-trans)-4-methyl-1-(pyrimidine-4-carbonyl)pyrrolidin-3-yl)-7-(tetrahydro-2H-pyran-4-yl)imidazo[5,1-f][1,2,4]triazin-4(3H)-one], which IC50 is on record?
Its IC50 is less than 1000 nM.

How did the IC50 turn out when `CC1CN(S(=O)(=O)c2ccccc2)CC1c1nn2c(C3CCOCC3)ncc2c(=O)[nH]1` (single isomer, unassigned; (-)) [(−)-2-((3,4-trans)-4-methyl-1-(phenylsulfonyl)pyrrolidin-3-yl)-7-(tetrahydro-2H-pyran-4-yl)imidazo[5,1-f][1,2,4]triazin-4(3H)-one] was run?
Its IC50 is 1000 to 10000 nM.

`CC1CN(Cc2ncc3ccccc3n2)CC1c1nn2c(C3CCOCC3)ncc2c(=O)[nH]1` (single isomer, unassigned; (+)) [(+)-2-((3,4-trans)-4-methyl-1-(quinazolin-2-ylmethyl)pyrrolidin-3-yl)-7-(tetrahydro-2H-pyran-4-yl)imidazo[5,1-f][1,2,4]triazin-4(3H)-one] was tested. Which IC50 did it give?
Its IC50 is less than 1000 nM.

`CC1CN(S(=O)(=O)c2cccnc2)CC1c1nn2c(C3CCOCC3)ncc2c(=O)[nH]1` (single isomer, unassigned; (+)) [(+)-2-((3,4-trans)-4-methyl-1-(pyridin-3-ylsulfonyl)pyrrolidin-3-yl)-7-(tetrahydro-2H-pyran-4-yl)imidazo[5,1-f][1,2,4]triazin-4(3H)-one] was tested. Which IC50 did it give?
Its IC50 is less than 1000 nM.

`CC1CN(C(=O)c2ncccn2)CC1c1nn2c(C3CCOCC3)ncc2c(=O)[nH]1` (single isomer, unassigned; (+)) [(+)-2-((3,4-trans)-4-methyl-1-(pyrimidine-2-carbonyl)pyrrolidin-3-yl)-7-(tetrahydro-2H-pyran-4-yl)imidazo[5,1-f][1,2,4]triazin-4(3H)-one] was tested. Which IC50 did it give?
The IC50 was 1000 to 10000 nM.

How did the IC50 turn out when `CC1CN(S(=O)(=O)c2ccc(F)cc2)CC1c1nn2c(C3CCOCC3)ncc2c(=O)[nH]1` (single isomer, unassigned; (+)) [(+)-2-((3,4-trans)-1-((4-fluorophenyl)sulfonyl)-4-methylpyrrolidin-3-yl)-7-(tetrahydro-2H-pyran-4-yl)imidazo[5,1-f][1,2,4]triazin-4(3H)-one] was run?
The IC50 was less than 1000 nM.

Which IC50 does the source give for `Cc1cnc(CN2C[C@@H](C)[C@H](c3nn4c(C5CCOCC5)ncc4c(=O)[nH]3)C2)cn1` (relative stereo) [(+)-2-((3,4-trans)-4-methyl-1-((5-methylpyrazin-2-yl)methyl)pyrrolidin-3-yl)-7-(tetrahydro-2H-pyran-4-yl)imidazo[5,1-f][1,2,4]triazin-4(3H)-one] here?
Its IC50 is less than 1000 nM.

With `CC1CN(C(=O)c2ccccn2)CC1c1nn2c(C3CCOCC3)ncc2c(=O)[nH]1` (single isomer, unassigned; (-)) [(−)-2-((3,4-trans)-4-methyl-1-picolinoylpyrrolidin-3-yl)-7-(tetrahydro-2H-pyran-4-yl)imidazo[5,1-f][1,2,4]triazin-4(3H)-one] as the compound, how does the IC50 read?
Its IC50 is less than 1000 nM.

With `CC1CN(Cc2ccc(C#N)cc2)CC1c1nn2c(C3CCOCC3)ncc2c(=O)[nH]1` (single isomer, unassigned; (+)) [(+)-4-(((3,4-trans)-3-methyl-4-(4-oxo-7-(tetrahydro-2H-pyran-4-yl)-3,4-dihydroimidazo[5,1-f][1,2,4]triazin-2-yl)pyrrolidin-1-yl)methyl)benzonitrile] as the compound, how does the IC50 read?
The IC50 was less than 1000 nM.

same assay, conditions: Table 2; 10 concentrations; 4.0 μM cGMP substrate; 1 hour at R.T.; read-out: Band (PDE9A2 IC50)

Which IC50 does the source give for `CC1CN(C(=O)Cc2cncnc2)CC1c1nn2c(C3CCOCC3)ncc2c(=O)[nH]1` (single isomer, unassigned; (+)) [(+)-2-((3,4-trans)-4-methyl-1-(2-(pyrimidin-5-yl)acetyl)pyrrolidin-3-yl)-7-(tetrahydro-2H-pyran-4-yl)imidazo[5,1-f][1,2,4]triazin-4(3H)-one] here?
Its IC50 is 1000 to 10000 nM.

How did the IC50 turn out when `CC1CN(CC(F)(F)F)CC1c1nn2c(C3CCOCC3)ncc2c(=O)[nH]1` (single isomer, unassigned; (+)) [(+)-2-((3,4-trans)-4-methyl-1-(2,2,2-trifluoroethyl)pyrrolidin-3-yl)-7-(tetrahydro-2H-pyran-4-yl)imidazo[5,1-f][1,2,4]triazin-4(3H)-one] was run?
The IC50 was less than 1000 nM.

same assay, conditions: read-out: Band (PDE9A2 IC50)

`CC1CN(Cc2cn3ccccc3n2)CC1c1nn2c(-c3ccccc3)ncc2c(=O)[nH]1` (single isomer, unassigned; (+)) [(+)-2-((3,4-trans)-1-(imidazo[1,2-a]pyridin-2-ylmethyl)-4-methylpyrrolidin-3-yl)-7-phenylimidazo[5,1-f][1,2,4]triazin-4(3H)-one] was tested. Which IC50 did it give?
Its IC50 is less than 1000 nM.

How did the IC50 turn out when `CC1CN(Cc2cn3ccccc3n2)CC1c1nn2c(-c3cccc(F)c3)ncc2c(=O)[nH]1` (single isomer, unassigned; (+)) [(+)-7-(3-fluorophenyl)-2-((3,4-trans)-1-(imidazo[1,2-a]pyridin-2-ylmethyl)-4-methylpyrrolidin-3-yl)imidazo[5,1-f][1,2,4]triazin-4(3H)-one] was run?
The IC50 was less than 1000 nM.

How did the IC50 turn out when `Cc1ccncc1-c1ncc2c(=O)[nH]c(C3CN(Cc4ccc(F)cc4)CC3C)nn12` (single isomer, unassigned; (+)) [(+)-2-((3,4-trans)-1-(4-fluorobenzyl)-4-methylpyrrolidin-3-yl)-7-(4-methylpyridin-3-yl)imidazo[5,1-f][1,2,4]triazin-4(3H)-one] was run?
Its IC50 is less than 1000 nM.

With `CC1CN(Cc2ncccn2)CC1c1nn2c(-c3cccc(F)c3)ncc2c(=O)[nH]1` (single isomer, unassigned; (+)) [(+)-7-(3-fluorophenyl)-2-((3,4-trans)-4-methyl-1-(pyrimidin-2-ylmethyl)pyrrolidin-3-yl)imidazo[5,1-f][1,2,4]triazin-4(3H)-one] as the compound, how does the IC50 read?
Its IC50 is less than 1000 nM.

`CC1CN(CC2CC2)CC1c1nn2c(C3CCOCC3)ncc2c(=O)[nH]1` (single isomer, unassigned; (+)) [(+)-2-((3,4-trans)-1-(cyclopropylmethyl)-4-methylpyrrolidin-3-yl)-7-(tetrahydro-2H-pyran-4-yl)imidazo[5,1-f][1,2,4]triazin-4(3H)-one] was tested. Which IC50 did it give?
Its IC50 is 1000 to 10000 nM.
